From publication PMC8086157, “Cryo-EM structure of a thermostable bacterial nanocompartment” (IUCrJ, 2021)

Target: T1, T. maritima encapsulin (TmEnc) (Thermotoga maritima, UniProt Q9WZP2)
T1 construct: gene enc; codon-optimized gene in pET-11a, E. coli Rosetta2 (DE3); no tag mentioned; icosahedral shell without cargo protein; flavin site formed by three subunits
T1 sequence (Q9WZP2 1-265): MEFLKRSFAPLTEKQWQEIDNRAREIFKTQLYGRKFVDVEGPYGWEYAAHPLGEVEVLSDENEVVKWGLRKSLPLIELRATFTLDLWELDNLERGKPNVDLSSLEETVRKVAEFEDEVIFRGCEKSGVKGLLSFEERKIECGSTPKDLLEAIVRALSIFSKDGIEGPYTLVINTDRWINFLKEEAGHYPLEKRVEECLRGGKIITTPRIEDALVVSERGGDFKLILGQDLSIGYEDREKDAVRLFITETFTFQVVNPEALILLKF
Test: cryo-EM structure ([…] Å)
Type: binding
Conditions: co-purified from E. coli lysate through 80°C step; exact flavin identity ambiguous, FMN modelled; exterior site near threefold axis, stacks on Trp87; Tris pH 8.0, 150 mM NaCl

SMILES: Cc1cc2nc3c(=O)[nH]c(=O)nc-3n(C[C@H](O)[C@H](O)[C@H](O)COP(=O)(O)O)c2cc1C [flavin mononucleotide]
- cryo-EM structure (2.0 Å): flavin mononucleotide (FMN) seems to be consistent with the density and has been modeled
